Assays:
[1] = Second experiment: ^13C-labelled compounds once daily for 4 successive days, ^13C/^12C ratio in breath and hair, metabolic model; conditions: oral once daily for 4 days; for Rr, recovery ratio of administered ^13C / dB, distribution ratio of ^13C into breath pathway to administered ^13C / dBf, distribution ratio into fast compartment of breath pathway / dO, distribution ratio of ^13C into other* pathway (hair) to administered ^13C / dOf, distribution ratio into fast compartment of other* pathway / kBf, excretion rate constant, fast compartment, breath pathway / kBs, excretion rate constant, slow compartment, breath pathway / kOf, excretion rate constant, fast compartment, other* pathway / kOs, excretion rate constant, slow compartment, other* pathway: mean
Text: The rate of ^13C excretion for each pathway (Em, g d^−1) is given by the following equations:1 Em=∑nkmndmdmnkm/km−kmn(e^−kmnt−e^−kmt) where, m is the excretion pathway symbol of B, U, F, and O corresponding to the excretion pathways of breath, urine, faeces, and other*, respectively; n is the symbol of f and s corresponding to the compartments with fast and slow metabolism, respectively; km and kmn are the excretion rate constants from compartment Cm and Cmn, respectively; dm is the distribution ratio of ^13C into compartment Cm to the administered ^13C; dmn is the distribution ratio of ^13C into compartment Cmn to ^13C from compartment Cm; Rr is the recovery ratio of administered ^13C. The sum of distribution ratios of compartments with fast and slow metabolism was fixed to unity (i.e. dBf + dBs = 1).
Additional doses of ^13C-labelled compounds were administered on day 160 for marking the ^13C/^12C ratio of hair samples and the volunteers freely ate meals without calorific restrictions.
In the first experiment, breath, urine, faeces, and hair samples were periodically collected and the ^13C/^12C ratio was analysed following the procedure described in a previous paper. […] Faecal samples were collected once before day 0 and at every defecation from day 0 to 14. On day 0, additional breath and urine samples were collected frequently after administration. […] According to the section number of the two peaks, the experimental date for each section between the two peaks was determined under an assumption of uniform hair growth.
Some volunteers also dropped out of the sampling procedure for various reasons.
The detailed procedures used were described in a previous published paper. When urine and hair samples had no increase phase, the values of kU and kO were fixed to those of kB obtained from the same volunteers in the regression analysis.

[2] = design: method as in doi:10.1093/oxfordjournals.rpd.a032384; conditions: rats, 100 days after administration; cited from earlier work
[3] = design: method as in PMID 14371643; conditions: intravenous administration; cited from earlier work
[4] = 50-year cumulative body burden and committed effective dose / dose coefficient calculated with the metabolic models; design: species or system human; conditions: orally ingested 1 g of ^13C
Text: The dose coefficients obtained with each assumption are called non conservative estimation (ER) and conservative estimation (EC) hereafter. The recovered fraction was assumed to be distributed uniformly in the whole-body carbon with a tissue weighting factor of unity. […] In addition to these estimations, we calculated the most conservative estimation (EX) adopting the tissue weighting factor of unity for unrecovered carbon. We solely adopted the value for the maximal estimation.
The 50-year cumulative body burden of ^14C after a single ingestion of 1 Bq of ^14C in each compound (BC Bq d) was calculated using the metabolic model and its parameters described above, under the assumption of the same metabolic behaviour of ^13C and ^14C. […] The total cumulative burden was derived as a sum of burdens from the recoverable and unrecoverable fractions with designated proportions Rr and 1−Rr, respectively. For the recoverable fraction, the burden was calculated using following equation:2 BC≈∑mdm/km+∑m∑ndmdmn/kmn where, every dm was divided by Rr when Rr was larger than unity.
The 50-year committed effective dose (Sv) from ingestion of 1 Bq ^14C was calculated from the 50-year cumulative burden by using the ratio of absorbed dose to ^14C radioactivity, radiation weighting factor of beta-ray from ^14C (1.0) and tissue weighting factors. […]

Question: What does the source list for `NCC(=O)O` [Glycine, glycine]?
Answer: Rr, recovery ratio of administered ^13C ([1]; All (both sexes)): 1.0; dB, distribution ratio of ^13C into breath pathway to administered ^13C ([1]; All (both sexes)): 0.80; dBf, distribution ratio into fast compartment of breath pathway ([1]; All (both sexes)): 0.36; dO, distribution ratio of ^13C into other* pathway (hair) to administered ^13C ([1]; All (both sexes)): 0.18; dOf, distribution ratio into fast compartment of other* pathway ([1]; All (both sexes)): 0.50; kBf, excretion rate constant, fast compartment, breath pathway ([1]; All (both sexes)): 11 day⁻¹; kBs, excretion rate constant, slow compartment, breath pathway ([1]; All (both sexes)): 0.17 day⁻¹; kOf, excretion rate constant, fast compartment, other* pathway ([1]; All (both sexes)): 0.10 day⁻¹; kOs, excretion rate constant, slow compartment, other* pathway ([1]; All (both sexes)): 0.0086 day⁻¹; Rr, recovery ratio of administered ^13C ([1]; Female): 1.0; dB, distribution ratio of ^13C into breath pathway to administered ^13C ([1]; Female): 0.84; dBf, distribution ratio into fast compartment of breath pathway ([1]; Female): 0.36; dO, distribution ratio of ^13C into other* pathway (hair) to administered ^13C ([1]; Female): 0.18; dOf, distribution ratio into fast compartment of other* pathway ([1]; Female): 0.52; kBf, excretion rate constant, fast compartment, breath pathway ([1]; Female): 11 day⁻¹; kBs, excretion rate constant, slow compartment, breath pathway ([1]; Female): 0.18 day⁻¹; kOf, excretion rate constant, fast compartment, other* pathway ([1]; Female): 0.098 day⁻¹; kOs, excretion rate constant, slow compartment, other* pathway ([1]; Female): 0.0091 day⁻¹; Rr, recovery ratio of administered ^13C ([1]; Male): 0.93; dB, distribution ratio of ^13C into breath pathway to administered ^13C ([1]; Male): 0.74; dBf, distribution ratio into fast compartment of breath pathway ([1]; Male): 0.37; dO, distribution ratio of ^13C into other* pathway (hair) to administered ^13C ([1]; Male): 0.18; dOf, distribution ratio into fast compartment of other* pathway ([1]; Male): 0.47; kBf, excretion rate constant, fast compartment, breath pathway ([1]; Male): 9.7 day⁻¹; kBs, excretion rate constant, slow compartment, breath pathway ([1]; Male): 0.16 day⁻¹; kOf, excretion rate constant, fast compartment, other* pathway ([1]; Male): 0.11 day⁻¹; kOs, excretion rate constant, slow compartment, other* pathway ([1]; Male): 0.0080 day⁻¹; estimated distribution ratio of ^13C for the breath pathway (dB) ([1]; mean ± S.D., both sexes): 80 ± 9%

Question: With `CCCCCCCC/C=C\CCCCCCCC(=O)O` [^14C-labelled oleic acid, oleic acid] as the molecule, how does the “^14C concentration in adipose tissue relative to that of palmitic acid” value [2] read?
Answer: Its value is “three times higher”.

Question: Which “recovery through the breath pathway” value [3] does the source give for `N[14CH2]C(=O)O` [glycine-[2-^14C]] here?
Answer: The value was 86%.

Question: For `CCCCCCCCCCCCCCCC(=O)O` [palmitic acid], which “contribution of faeces pathway to 50-year cumulative body burden” value [4] is on record?
Answer: The value was 0.034 ± 0.070%.

Question: What about the “contribution of urine pathway to 50-year cumulative body burden” value [4] of the same molecule?
Answer: The value was 0.038 ± 0.030%.

Reference: publication PMC7235250, “Estimation of dietary ^14C dose coefficient using ^13C-labelled compound administration analysis” (Scientific Reports, 2020)
